Values after ≈ are worked out from the molar mass of the structure shown. Active and inactive are the calls of the source. No cut-off for these calls is given here.
Assays:
Staphylococcus aureus [1] = assay: Antibacterial activity against methicillin-resistant Staphylococcus aureus incubated in dark for 30 mins measured after 24 hrs; type: functional
Pseudomonas aeruginosa [2] = assay: Bactericidal activity against Pseudomonas aeruginosa ATCC 27853 incubated in dark for 30 mins followed by exposure to light fluences at 650 nm and 6 J/cm2 and then incubated overnight followed by further incubation on LB agar plates for another 24 hrs; type: functional; settings: ATCC 27853, light or radiation study
Pseudomonas aeruginosa [3] = assay: Antibacterial activity against Pseudomonas aeruginosa ATCC 27853 incubated in dark for 30 mins and grown for 24 hrs followed by further incubation on LB agar plates for another 24 hrs; type: functional
Staphylococcus aureus [4] = assay: Antibacterial activity against methicillin-resistant Staphylococcus aureus incubated in dark for 30 mins followed by exposure to light fluences at 650 nm and 6 J/cm2 and then incubated overnight measured after 24 hrs; type: functional; settings: light or radiation study
Staphylococcus aureus [5] = assay: Bactericidal activity against methicillin-resistant Staphylococcus aureus incubated in dark for 30 mins followed by exposure to light fluences at 650 nm and 6 J/cm2 and then incubated overnight followed by further incubation on LB agar plates for another 24 hrs; type: functional; settings: light or radiation study
Escherichia coli [6] = assay: Antibacterial activity against Escherichia coli ATCC 25922 incubated in dark for 30 mins followed by exposure to light fluences at 650 nm and 6 J/cm2 and then incubated overnight measured after 24 hrs; type: functional; settings: ATCC 25922, light or radiation study
Escherichia coli [7] = assay: Bactericidal activity against Escherichia coli ATCC 25922 incubated in dark for 30 mins followed by exposure to light fluences at 650 nm and 6 J/cm2 and then incubated overnight followed by further incubation on LB agar plates for another 24 hrs; type: functional; settings: ATCC 25922, light or radiation study
Escherichia coli [8] = assay: Antibacterial activity against Escherichia coli ATCC 25922 incubated in dark for 30 mins and grown for 24 hrs followed by further incubation on LB agar plates for another 24 hrs; type: functional
[9] = Singlet oxygen generation of the compound exposed to 4.2 mW/cm2 light energy density assessed as singlet oxygen quantum yield measured at 410 nm in 10 seconds intervals of irradiation at 0.2 uM by DPBF scavenger based assay
Escherichia coli [10] = assay: Antibacterial activity against Escherichia coli ATCC 25922 incubated in dark for 30 mins measured after 24 hrs; type: functional
Pseudomonas aeruginosa [11] = assay: Antibacterial activity against Pseudomonas aeruginosa ATCC 27853 incubated in dark for 30 mins measured after 24 hrs; type: functional
Staphylococcus aureus [12] = assay: Antibacterial activity against methicillin-resistant Staphylococcus aureus incubated in dark for 30 mins and grown for 24 hrs followed by further incubation on LB agar plates for another 24 hrs; type: functional
[13] = Octanol water partition coefficient, log P of the compound by reverse-phase thin-layer chromatography; type: physicochemical
Pseudomonas aeruginosa [14] = assay: Antibacterial activity against Pseudomonas aeruginosa ATCC 27853 incubated in dark for 30 mins followed by exposure to light fluences at 650 nm and 6 J/cm2 and then incubated overnight measured after 24 hrs; type: functional; settings: ATCC 27853, light or radiation study
[15] = Photostability at 2 x 10^-5 mol/L exposed to 4.2 mW/cm2 light energy density assessed as change in absorption spectra after 30 mins post irradiation; type: physicochemical; settings: 0.5 h, 20 µM
Escherichia coli [16] = assay: Antibacterial activity against Escherichia coli ATCC 25922 at 3.91 uM to 62.50 uM incubated in dark for 30 mins followed by exposure to light fluences at 650 nm and 6 J/cm2 and then incubated overnight measured after 24 hrs; type: functional, organism-based
Pseudomonas aeruginosa [17] = assay: Antibacterial activity against Pseudomonas aeruginosa ATCC 27853 at 0.49 uM to 7.8 uM incubated in dark for 30 mins followed by exposure to light fluences at 650 nm and 6 J/cm2 and then incubated overnight measured after 24 hrs; type: functional, organism-based
Pseudomonas aeruginosa [18] = assay: Antibacterial activity against Pseudomonas aeruginosa ATCC 27853 at 3.91 uM to 62.50 uM incubated in dark for 30 mins followed by exposure to light fluences at 650 nm and 6 J/cm2 and then incubated overnight measured after 24 hrs; type: functional, organism-based
Escherichia coli [19] = assay: Antibacterial activity against Escherichia coli ATCC 25922 at 0.49 uM to 7.8 uM incubated in dark for 30 mins followed by exposure to light fluences at 650 nm and 6 J/cm2 and then incubated overnight measured after 24 hrs; type: functional, organism-based
Staphylococcus aureus [20] = assay: Antibacterial activity against methicillin-resistant Staphylococcus aureus at 0.49 uM to 7.8 uM incubated in dark for 30 mins followed by exposure to light fluences at 650 nm and 6 J/cm2 and then incubated overnight measured after 24 hrs; type: functional, organism-based

## NCCCC[C@H](N)C(=O)Nc1ccc(-c2c3nc(c(-c4ccccc4)c4ccc([nH]4)c(-c4ccc(N)cc4)c4nc(c(-c5ccccc5)c5ccc2[nH]5)C=C4)C=C3)cc1
Staphylococcus aureus [1]
  MIC: 125 µM (≈ 96.6 µg/mL)
Pseudomonas aeruginosa [2]
  MBC: 125 µM (≈ 96.6 µg/mL)
Pseudomonas aeruginosa [3]
  MBC: 250 µM (≈ 193 µg/mL)
Staphylococcus aureus [4]
  MIC: 62.5 µM (≈ 48.3 µg/mL)
Staphylococcus aureus [5]
  MBC: 250 µM (≈ 193 µg/mL)
Escherichia coli [6]
  MIC: 62.5 µM (≈ 48.3 µg/mL)
Escherichia coli [7]
  MBC: 125 µM (≈ 96.6 µg/mL)
Escherichia coli [8]
  MBC: 125 µM (≈ 96.6 µg/mL)
[9]
  Activity: 0.27
Escherichia coli [10]
  MIC: 62.5 µM (≈ 48.3 µg/mL)
Pseudomonas aeruginosa [11]
  MIC: 125 µM (≈ 96.6 µg/mL)
Staphylococcus aureus [12]
  MBC: 250 µM (≈ 193 µg/mL)
[13]
  logP: 1.46
Pseudomonas aeruginosa [14]
  MIC: 62.5 µM (≈ 48.3 µg/mL)
[15]
  Activity: < 20%

## Nc1ccc(-c2c3nc(c(-c4ccc(N)cc4)c4ccc([nH]4)c(-c4ccccc4)c4nc(c(-c5ccccc5)c5ccc2[nH]5)C=C4)C=C3)cc1
Escherichia coli [16]
  Activity: inactive
Staphylococcus aureus [1]
  MIC: 125 µM (≈ 80.6 µg/mL)
Pseudomonas aeruginosa [17]
  Activity: inactive
Pseudomonas aeruginosa [2]
  MBC: 125 µM (≈ 80.6 µg/mL)
Pseudomonas aeruginosa [3]
  MBC: 250 µM (≈ 161 µg/mL)
Staphylococcus aureus [4]
  MIC: 125 µM (≈ 80.6 µg/mL)
Staphylococcus aureus [5]
  MBC: 250 µM (≈ 161 µg/mL)
Escherichia coli [6]
  MIC: 62.5 µM (≈ 40.3 µg/mL)
Escherichia coli [7]
  MBC: 125 µM (≈ 80.6 µg/mL)
Escherichia coli [8]
  MBC: 250 µM (≈ 161 µg/mL)
Escherichia coli [10]
  MIC: 125 µM (≈ 80.6 µg/mL)
Pseudomonas aeruginosa [18]
  Activity: inactive
Pseudomonas aeruginosa [11]
  MIC: 125 µM (≈ 80.6 µg/mL)
Escherichia coli [19]
  Activity: inactive
Staphylococcus aureus [12]
  MBC: 500 µM (≈ 322 µg/mL)
Staphylococcus aureus [20]
  Activity: inactive
Pseudomonas aeruginosa [14]
  MIC: 62.5 µM (≈ 40.3 µg/mL)
[15]
  Activity: < 20%

## N=C(N)NCCC[C@H](N)C(=O)Nc1ccc(-c2c3nc(c(-c4ccccc4)c4ccc([nH]4)c(-c4ccccc4)c4nc(c(-c5ccccc5)c5ccc2[nH]5)C=C4)C=C3)cc1
Escherichia coli [16]
  Activity: inactive
Staphylococcus aureus [1]
  MIC: 125 µM (≈ 98.2 µg/mL)
Pseudomonas aeruginosa [17]
  Activity: inactive
Pseudomonas aeruginosa [2]
  MBC: 125 µM (≈ 98.2 µg/mL)
Pseudomonas aeruginosa [3]
  MBC: 250 µM (≈ 196 µg/mL)
Staphylococcus aureus [4]
  MIC: 62.5 µM (≈ 49.1 µg/mL)
Staphylococcus aureus [5]
  MBC: 125 µM (≈ 98.2 µg/mL)
Escherichia coli [6]
  MIC: 62.5 µM (≈ 49.1 µg/mL)
Escherichia coli [7]
  MBC: 125 µM (≈ 98.2 µg/mL)
Escherichia coli [8]
  MBC: 125 µM (≈ 98.2 µg/mL)
[9]
  Activity: 0.71
Escherichia coli [10]
  MIC: 62.5 µM (≈ 49.1 µg/mL)
Pseudomonas aeruginosa [18]
  Activity: inactive
Pseudomonas aeruginosa [11]
  MIC: 125 µM (≈ 98.2 µg/mL)
Escherichia coli [19]
  Activity: inactive
Staphylococcus aureus [12]
  MBC: 250 µM (≈ 196 µg/mL)
[13]
  logP: 1.45
Staphylococcus aureus [20]
  Activity: inactive
Pseudomonas aeruginosa [14]
  MIC: 62.5 µM (≈ 49.1 µg/mL)
[15]
  Activity: < 20%

## Nc1ccc(-c2c3nc(c(-c4ccccc4)c4ccc([nH]4)c(-c4ccc(N)cc4)c4nc(c(-c5ccccc5)c5ccc2[nH]5)C=C4)C=C3)cc1
Escherichia coli [16]
  Activity: inactive
Staphylococcus aureus [1]
  MIC: 62.5 µM (≈ 40.3 µg/mL)
Pseudomonas aeruginosa [17]
  Activity: inactive
Pseudomonas aeruginosa [2]
  MBC: 250 µM (≈ 161 µg/mL)
Pseudomonas aeruginosa [3]
  MBC: 250 µM (≈ 161 µg/mL)
Staphylococcus aureus [4]
  MIC: 62.5 µM (≈ 40.3 µg/mL)
Staphylococcus aureus [5]
  MBC: 125 µM (≈ 80.6 µg/mL)
Escherichia coli [6]
  MIC: 125 µM (≈ 80.6 µg/mL)
Escherichia coli [7]
  MBC: 500 µM (≈ 322 µg/mL)
Escherichia coli [8]
  MBC: > 500 µM
Escherichia coli [10]
  MIC: > 500 µM
Pseudomonas aeruginosa [18]
  Activity: inactive
Pseudomonas aeruginosa [11]
  MIC: 125 µM (≈ 80.6 µg/mL)
Escherichia coli [19]
  Activity: inactive
Staphylococcus aureus [12]
  MBC: 125 µM (≈ 80.6 µg/mL)
Staphylococcus aureus [20]
  Activity: inactive
Pseudomonas aeruginosa [14]
  MIC: 125 µM (≈ 80.6 µg/mL)
[15]
  Activity: < 20%

## NCCCC[C@H](N)C(=O)Nc1ccc(-c2c3nc(c(-c4ccc(N)cc4)c4ccc([nH]4)c(-c4ccccc4)c4nc(c(-c5ccccc5)c5ccc2[nH]5)C=C4)C=C3)cc1
Staphylococcus aureus [1]
  MIC: 125 µM (≈ 96.6 µg/mL)
Pseudomonas aeruginosa [2]
  MBC: 125 µM (≈ 96.6 µg/mL)
Pseudomonas aeruginosa [3]
  MBC: 250 µM (≈ 193 µg/mL)
Staphylococcus aureus [4]
  MIC: 62.5 µM (≈ 48.3 µg/mL)
Staphylococcus aureus [5]
  MBC: 125 µM (≈ 96.6 µg/mL)
Escherichia coli [6]
  MIC: 62.5 µM (≈ 48.3 µg/mL)
Escherichia coli [7]
  MBC: 125 µM (≈ 96.6 µg/mL)
Escherichia coli [8]
  MBC: 125 µM (≈ 96.6 µg/mL)
[9]
  Activity: 0.24
Escherichia coli [10]
  MIC: 62.5 µM (≈ 48.3 µg/mL)
Pseudomonas aeruginosa [11]
  MIC: 125 µM (≈ 96.6 µg/mL)
Staphylococcus aureus [12]
  MBC: 250 µM (≈ 193 µg/mL)
[13]
  logP: 1.47
Pseudomonas aeruginosa [14]
  MIC: 62.5 µM (≈ 48.3 µg/mL)
[15]
  Activity: < 20%

## Nc1ccc(-c2c3nc(c(-c4ccc(N)cc4)c4ccc([nH]4)c(-c4ccc(N)cc4)c4nc(c(-c5ccc(N)cc5)c5ccc2[nH]5)C=C4)C=C3)cc1
Staphylococcus aureus [1]
  MIC: 125 µM (≈ 84.4 µg/mL)
Pseudomonas aeruginosa [2]
  MBC: 250 µM (≈ 169 µg/mL)
Pseudomonas aeruginosa [3]
  MBC: 250 µM (≈ 169 µg/mL)
Staphylococcus aureus [4]
  MIC: 62.5 µM (≈ 42.2 µg/mL)
Staphylococcus aureus [5]
  MBC: 125 µM (≈ 84.4 µg/mL)
Escherichia coli [6]
  MIC: 125 µM (≈ 84.4 µg/mL)
Escherichia coli [7]
  MBC: 250 µM (≈ 169 µg/mL)
Escherichia coli [8]
  MBC: 250 µM (≈ 169 µg/mL)
Escherichia coli [10]
  MIC: 125 µM (≈ 84.4 µg/mL)
Pseudomonas aeruginosa [11]
  MIC: 125 µM (≈ 84.4 µg/mL)
Staphylococcus aureus [12]
  MBC: 500 µM (≈ 337 µg/mL)
Pseudomonas aeruginosa [14]
  MIC: 125 µM (≈ 84.4 µg/mL)

Reference: ChEMBL document CHEMBL3407491, “Synthesis, characterization and in vitro photodynamic antimicrobial activity of basic amino acid-porphyrin conjugates” (Eur J Med Chem, 2015)
